In brackets after ≈: the same amount, converted by molar mass.

Series [1] in a line: Plasma stability (h). The series is classed as in vitro ADME, human. To be noted: % remaining at 60 min.
Series [2] has as its target α2β1 (Homo sapiens, UniProt P05556+P17301). Kind of series: α2β1 cell adhesion. It is filed as cell-based.
Series [3] is described as follows: Caco-2 permeability. It is filed as in vitro ADME. To be noted: human; for Papp A→B: A-B direction; for Papp B→A: B-A direction.
Series [4] is described as follows: Metabolic stability (h). It is filed as in vitro ADME, human. The note with it: % remaining at 45 min.
The target in series [5] is α4β1 (Homo sapiens, UniProt P05556+P13612). Kind of series: α4β1 cell adhesion. The series is classed as cell-based.
Series [6] in a line: Kinetic solubility (aqueous). The note with it: kinetic from dmso stock, read-out: Kinetic Solubility (Aq). The series is classed as physicochemical.

α2β1, sequence (P17301 30-1181): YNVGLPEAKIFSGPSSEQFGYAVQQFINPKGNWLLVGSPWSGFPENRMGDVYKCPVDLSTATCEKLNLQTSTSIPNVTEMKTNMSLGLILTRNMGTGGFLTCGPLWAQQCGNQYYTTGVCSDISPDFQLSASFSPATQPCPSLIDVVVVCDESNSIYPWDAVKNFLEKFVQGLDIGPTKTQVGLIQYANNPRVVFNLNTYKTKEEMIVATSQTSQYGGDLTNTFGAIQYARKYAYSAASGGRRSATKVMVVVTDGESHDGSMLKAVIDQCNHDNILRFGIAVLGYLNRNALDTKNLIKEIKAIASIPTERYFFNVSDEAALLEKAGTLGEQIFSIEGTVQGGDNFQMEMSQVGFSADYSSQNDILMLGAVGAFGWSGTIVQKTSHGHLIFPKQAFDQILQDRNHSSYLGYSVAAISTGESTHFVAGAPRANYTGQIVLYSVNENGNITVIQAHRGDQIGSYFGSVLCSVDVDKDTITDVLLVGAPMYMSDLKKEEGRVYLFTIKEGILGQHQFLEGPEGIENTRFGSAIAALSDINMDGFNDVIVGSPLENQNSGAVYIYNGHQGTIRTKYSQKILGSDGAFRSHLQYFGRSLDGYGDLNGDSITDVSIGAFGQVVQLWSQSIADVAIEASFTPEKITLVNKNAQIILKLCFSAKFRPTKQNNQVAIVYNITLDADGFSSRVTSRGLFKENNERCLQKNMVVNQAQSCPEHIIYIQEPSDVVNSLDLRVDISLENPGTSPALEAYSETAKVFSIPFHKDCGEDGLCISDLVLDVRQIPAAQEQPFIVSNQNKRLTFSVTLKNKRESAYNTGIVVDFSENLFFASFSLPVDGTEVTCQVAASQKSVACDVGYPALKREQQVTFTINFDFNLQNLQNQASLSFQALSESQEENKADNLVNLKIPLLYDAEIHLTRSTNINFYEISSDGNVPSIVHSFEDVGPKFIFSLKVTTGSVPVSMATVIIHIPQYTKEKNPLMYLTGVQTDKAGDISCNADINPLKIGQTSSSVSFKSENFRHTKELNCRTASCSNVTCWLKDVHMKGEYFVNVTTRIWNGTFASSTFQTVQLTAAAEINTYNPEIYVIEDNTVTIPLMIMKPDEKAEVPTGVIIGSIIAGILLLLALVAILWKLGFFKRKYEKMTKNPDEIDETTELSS
α2β1, sequence (P05556 21-798): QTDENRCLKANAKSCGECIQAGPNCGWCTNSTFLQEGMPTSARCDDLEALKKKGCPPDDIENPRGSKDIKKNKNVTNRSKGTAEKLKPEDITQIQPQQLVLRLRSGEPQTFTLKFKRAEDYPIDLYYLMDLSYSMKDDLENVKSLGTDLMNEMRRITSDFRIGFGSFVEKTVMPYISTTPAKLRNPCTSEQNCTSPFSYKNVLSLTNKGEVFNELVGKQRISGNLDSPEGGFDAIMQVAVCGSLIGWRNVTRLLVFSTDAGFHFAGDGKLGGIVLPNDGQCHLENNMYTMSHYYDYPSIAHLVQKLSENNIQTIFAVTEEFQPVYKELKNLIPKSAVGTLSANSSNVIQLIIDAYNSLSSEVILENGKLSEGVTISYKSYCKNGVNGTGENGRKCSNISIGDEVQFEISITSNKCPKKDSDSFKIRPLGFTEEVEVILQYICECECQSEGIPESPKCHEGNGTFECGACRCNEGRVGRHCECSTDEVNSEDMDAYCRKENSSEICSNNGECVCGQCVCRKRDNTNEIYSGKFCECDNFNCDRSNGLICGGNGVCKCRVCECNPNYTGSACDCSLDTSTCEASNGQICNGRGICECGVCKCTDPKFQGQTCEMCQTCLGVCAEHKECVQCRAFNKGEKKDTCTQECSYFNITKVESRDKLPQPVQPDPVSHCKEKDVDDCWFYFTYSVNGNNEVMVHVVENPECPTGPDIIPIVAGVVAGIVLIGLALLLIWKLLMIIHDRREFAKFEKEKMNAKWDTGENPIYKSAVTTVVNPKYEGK
α4β1, sequence (P13612 34-1032): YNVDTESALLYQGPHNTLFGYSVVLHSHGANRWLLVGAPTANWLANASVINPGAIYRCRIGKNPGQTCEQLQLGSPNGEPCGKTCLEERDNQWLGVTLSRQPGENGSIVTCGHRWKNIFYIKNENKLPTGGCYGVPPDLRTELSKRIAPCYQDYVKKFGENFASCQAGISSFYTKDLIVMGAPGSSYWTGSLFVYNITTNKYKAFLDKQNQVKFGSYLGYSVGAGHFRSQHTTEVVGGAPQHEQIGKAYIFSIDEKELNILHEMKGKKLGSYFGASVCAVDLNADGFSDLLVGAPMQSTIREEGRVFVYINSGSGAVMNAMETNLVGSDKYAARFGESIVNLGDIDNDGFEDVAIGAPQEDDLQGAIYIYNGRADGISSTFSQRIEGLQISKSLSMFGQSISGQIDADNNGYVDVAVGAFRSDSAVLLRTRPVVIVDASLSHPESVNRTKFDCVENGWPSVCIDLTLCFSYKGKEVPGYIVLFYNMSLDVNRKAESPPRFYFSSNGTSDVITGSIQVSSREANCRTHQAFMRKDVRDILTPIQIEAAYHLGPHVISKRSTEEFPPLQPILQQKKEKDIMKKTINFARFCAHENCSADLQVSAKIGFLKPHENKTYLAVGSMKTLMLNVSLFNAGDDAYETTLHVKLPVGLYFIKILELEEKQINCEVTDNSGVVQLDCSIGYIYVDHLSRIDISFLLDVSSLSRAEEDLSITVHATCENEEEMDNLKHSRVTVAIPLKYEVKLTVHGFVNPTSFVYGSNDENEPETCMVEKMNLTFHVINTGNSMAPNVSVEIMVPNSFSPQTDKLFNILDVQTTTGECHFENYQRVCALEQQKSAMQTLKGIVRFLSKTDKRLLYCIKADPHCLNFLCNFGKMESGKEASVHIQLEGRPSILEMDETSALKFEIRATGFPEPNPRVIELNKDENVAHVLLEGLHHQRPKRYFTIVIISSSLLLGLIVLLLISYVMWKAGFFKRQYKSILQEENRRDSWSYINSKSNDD
α4β1, sequence (P05556 21-798): as the sequence (P05556 21-798) above

On to `O=C(NC[C@H](NC(=O)c1c(Cl)cc2c(c1Cl)CCN(C(=O)c1ccccc1)C2)C(=O)O)N[C@@H]1CCc2ccccc21` [SU15210-0173-01], for which the “Plasma Stab(h) % rem/60 min” value in series [1] was determined as 108%. In series [2], this compound gave a 50% inhibitory concentration (IC50) of under 500 nM. In series [3], this compound returned a Papp A→B of 0.8 ×10⁻⁶ cm/s and a Papp B→A of 6.8 ×10⁻⁶ cm/s. In addition, the “Met Stab(h) % rem/45 min” value in series [4] stood at 65%.
`O=C(NC[C@H](NC(=O)c1c(Cl)ccc(Nc2ncc3ccccc3n2)c1Cl)C(=O)O)N[C@@H]1CCc2ccccc21` [SU15210-0076-01, (S)-2-(2,6-dichloro-3-(quinazolin-2-ylamino)benzamido)-3-(3-((R)-2,3-dihydro-1H-inden-1-yl)ureido)propanoic Acid]: in series [1], the “Plasma Stab(h) % rem/60 min” value is reported as 55.6%. Also, the figures for the IC50 in series [2] and in series [5] were under 500 nM and 2900 nM, respectively. The Papp A→B in series [3] turned out to be 0.2 ×10⁻⁶ cm/s. Moreover, the Papp B→A in series [3] was found to be 24.2 ×10⁻⁶ cm/s. Moreover, the “Met Stab(h) % rem/45 min” value in series [4] turned out to be 96.3%.
On to `O=C(Cc1cccc(Cl)c1)Nc1ccc(Cl)c(C(=O)N[C@@H](CNC(=O)N[C@@H]2CCc3ccccc32)C(=O)O)c1Cl` [SU15210-0099-01, (S)-2-(2,6-dichloro-3-(2-(3-chlorophenyl)acetamido)benzamido)-3-(3-((R)-2,3-dihydro-1H-inden-1-yl)ureido)propanoic Acid], for which, in series [1], the “Plasma Stab(h) % rem/60 min” value was 85.84%. Besides, in series [2], the IC50 was under 500 nM. Also, in series [3], the apical-to-basolateral permeability (Papp A→B) was 2.7 ×10⁻⁶ cm/s and the apparent permeability from basolateral to apical (Papp B→A) was determined as 20.1 ×10⁻⁶ cm/s. The solubility (kinetic) in series [6] was 66.9 µM (≈ 40.4 µg/mL). The “Met Stab(h) % rem/45 min” value in series [4] was determined as 72.3%.
As for `O=C(NC[C@H](NC(=O)c1c(Cl)cc(C(=O)NCc2cccc(O)c2)cc1Cl)C(=O)O)N[C@@H]1CCc2ccccc21` [SU15210-0095-01, (S)-2-(2,6-dichloro-4-(3-hydroxybenzylcarbamoyl)benzamido)-3-(3-((R)-2,3-dihydro-1H-inden-1-yl)ureido)propanoic Acid], the “Plasma Stab(h) % rem/60 min” value in series [1] was determined as 99.4%. Also, in series [2], the half-maximal inhibitory concentration (IC50) was under 500 nM. In series [3], this compound showed a Papp A→B of 3.2 ×10⁻⁶ cm/s and a Papp B→A of 1.6 ×10⁻⁶ cm/s. Further, 21100 nM corresponded to half-maximal inhibition in series [5] (IC50). In series [4], the “Met Stab(h) % rem/45 min” value came to 99.6%.
With `O=C(NC[C@H](NC(=O)c1c(Cl)ccc(N2CC(c3ccccc3)C2)c1Cl)C(=O)O)N[C@@H]1CCc2ccccc21` [SU15210-0080-01, (S)-2-(2,6-dichloro-3-(3-phenylazetidin-1-yl)benzamido)-3-(3-((R)-2,3-dihydro-1H-inden-1-yl)ureido)propanoic Acid], the 50% inhibitory concentration (IC50) was under 500 nM in series [2] and 37000 nM in series [5].

The values above are taken from patent US11643388B2, “Inhibitors of alpha 2 beta 1 integrin and methods of use thereof” (The Regents of the University of California, priority 2020, dated 2023).
